Test results: patent publication US9580707B2, “Peptide antimicrobials” (Wayne State University, priority 2010, dated 2017)

System: E. coli DH5α
Test: Induced growth curves of E. coli expressing peptide-PhoA fusions in the periplasm (periplasmic in vivo display)
Type: cell-based
Details: peptide expressed as PhoA fusion in the periplasm, arabinose induction, OD600
Method: Numerous periplasmic screens have been performed for the identification of bacteriolytic peptides, encompassing more than 90 million clones. Selected clones have been sequenced and confirmed by induced growth curves, confirming that the disclosed bacteriolytic screen enriches plasmid preparations for peptides that elicit cell lysis. For example, an isolated clone is grown in fresh LB medium to early log phase. Arabinose is added to induced peptide-PhoA fusion expression, and the peptide's effect on growth is observed by measuring the cell density of the culture. Many clones of differing growth phenotypes were analyzed. Bacteriolytic peptides have predominated the extracted clones, which is to be expected given that the bacteriolytic screen was used. Peptides were recovered that had either a bacteriostatic or bactericidal effect and others that have a weakly inhibitory effect as they reduce the rate of E. coli's growth […] and may find use as precursors to actual peptide hits.
Phenotype definitions: Bacteriolytic: OD600 of culture decreases in value, correlating with a reduction in the concentration of cells. Bactriostatic/bactericidal: OD600 of culture flatlines, correlating with a complete stop in the growth of the cells and constant cell density. Weakly inhibitory OD600<0.7: Replication is slowed but not stopped. Final OD600 as culture enters stationary phase is less than 0.7. Weakly inhibitory OD600>0.7: Similar to the above, only final OD600 exceeds 0.7. Peptides have only a minor effect on growth. Non-inhibitory: No growth effect was observed versus the expression of PhoA with no peptide at its N-terminus.
After replica plating, clones were grown in LB+30 μg/ml kanamycin. When OD600˜0.15, arabinose was added to a final concentration of 0.2%. The OD600 of the culture was then measured every 30 minutes to see the effect of peptide-PhoA fusion expression on the cell. […]

| Substance | antimicrobial activity / growth phenotype after induction |
| --- | --- |
| EOD037 Pro+: EOD037 in which an alanine was replaced with a proline (IRWLPRRWRRTF; Antimicrobial peptide EOD037Pro+) | loss of antimicrobial activity |
| EOD084: non-inhibitory, proline-containing peptide from the early onset degenerate peptide library (FMRLPRWWRRMQ; Antimicrobial peptide EOD084) | non-inhibitory |
| EOD037: inhibitory peptide from the early onset degenerate peptide library (IRWLARRWRRTF; Antimicrobial peptide EOD037) | inhibitory |
